According to patent publication US20030065039A1, “Biologically active 1,3-bis-aromatic-prop-2-en-1-ones, 1,3-bis-aromatic-propan-1-ones, and 1,3-bis-aromatic-prop-2-yn-1-ones” (Statens Serum Institute, priority 1997, published 2003):
Where two headings read alike, the source gives them in different places.

What was measured:
[1] = test system: mouse lymphoma tk; assay: Mouse lymphoma tk assay
Text: Following selection of SBC-35ma (3,5-dimethoxy-4′-allyloxychalcone) as a development candidate, this compound was studied in vitro using the chromosomal aberration assay with CHO cells and the mouse lymphoma tk assay.
In the screening design, three known drugs were included, namely chloroquine, pyrimethamine and artesunate.

[2] = Preliminary 14 days oral toxicity study in rats; assay type: in vivo; conditions: highest dose level 1000 mg/kg/day
Procedure: A preliminary 14 days oral toxicity study in rats was carried out with 6 compounds. Observations included clinical signs, body weights, food intake, haematology, clinical chemistry and macroscopic pathology.

[3] = test system: Vero cell cultures; assay: Cytotoxicity in Vero cell cultures; assay type: cell-based; conditions: Vero cells; values given as fractions, footnote a not given
Text: (§1) In the following is reported the results from a Vero cell culture infected with different viruses. The cell culture used as well as the methods applied are well known to a person skilled in the art.

[4] = test system: Coxsackie virus B4; assay: Antiviral activity in Vero cell cultures; assay type: cell-based; conditions: Vero cells; values given as fractions
Procedure: (§2) IC50 values are determined by the virus plaque formation and/or the virus cytopathic assay using standard methods well-known in the art.
as §1

[5] = test system: Parainfluenza-3 Virus; assay: Antiviral activity in Vero cell cultures; assay type: cell-based; conditions: Vero cells; values given as fractions
Procedure: as §2, §1

[6] = test system: Reovirus-1; assay: Antiviral activity in Vero cell cultures; assay type: cell-based; conditions: Vero cells; values given as fractions
Procedure: as §2, §1

[7] = test system: Simliki forest virus; assay: Antiviral activity in Vero cell cultures; assay type: cell-based; conditions: Vero cells; values given as fractions
Procedure: as §2, §1

[8] = test system: Sindbis virus; assay: Antiviral activity in Vero cell cultures; assay type: cell-based; conditions: Vero cells; values given as fractions
Procedure: as §2, §1

[9] = test system: cytomegalovirus AD-169 strain; assay: Activity against cytomegalovirus in HEL cells (plaque formation); assay type: cell-based; conditions: virus plaque formation reduced by 50%, 100 PFU, values given as fractions
Procedure: as §2

[10] = test system: cytomegalovirus Davis strain; assay: as above; assay type: cell-based; conditions: virus plaque formation reduced by 50%, 100 PFU, values given as fractions
Procedure: as §2

[11] = test system: human embryonic lung (HEL) cells; assay: Cytotoxicity in human embryonic lung (HEL) cells; assay type: cell-based; conditions: HEL cell growth reduced by 50%; values given as fractions
[12] = test system: Leishmania promastigotes; assay: Leishmania promastigotes Assay; assay type: cell-based; conditions: Leishmania; promastigotes, 3H-thymidine uptake; read-out: Leishmania IC50 ± SD
Outline: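 L. major (WHO Iran vaccine strain) and L. donovani MHOM/KE/85/NLB 274 promastigotes (3×10^6/ml, day 3 and 6 cultures) exposed to compound 2 h at 26 °C, then 3H-thymidine 18 h; incorporation counted by scintillation. Microscopic counts and flagellar motility also assessed.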

[13] = test system: human lymphocytes; assay: Lymphocyte Proliferation Assay; assay type: cell-based; conditions: Lymphocyte; PHA provoked proliferation of human lymphocytes; read-out: Lymphocytes IC50 ± SD
Outline: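 Ficoll-isolated human blood mononuclear cells (0.63×10^5/ml) in RPMI 1640 with 5% FCS were cultured in triplicate with test compound and PHA or PPD for 3 or 7 days. Proliferation measured by ^3H-thymidine incorporation over the final 24 h; triplicate median recorded.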

[14] = test system: Plasmodium falciparum; assay: Plasmodium falciparum Assay; assay type: cell-based; conditions: Plasmodium falciparum; 3-H-hypoxanthine incorporation, 48 hours; read-out: Plasmodium IC50 ± SD
Outline: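 Parasitized erythrocytes (~1% parasitemia, 5×10^8/ml) cultured 48 h in RPMI with test compound, with 3H-hypoxanthine added for the last 24 h. Growth inhibition read as 3H-hypoxanthine incorporation into parasite DNA by liquid scintillation; uninfected and untreated infected cultures run in parallel.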

[15] = target: T1, succinate dehydrogenase of Helicobacter pylori (Helicobacter pylori, UniProt O06913); assay type: biochemical
T1 construct: endogenous in cells; host or cells: Helicobacter pylori (preparation for the SDH measurement not described; sonicate mentioned for FRD)
T1 sequence (O06913 1-714): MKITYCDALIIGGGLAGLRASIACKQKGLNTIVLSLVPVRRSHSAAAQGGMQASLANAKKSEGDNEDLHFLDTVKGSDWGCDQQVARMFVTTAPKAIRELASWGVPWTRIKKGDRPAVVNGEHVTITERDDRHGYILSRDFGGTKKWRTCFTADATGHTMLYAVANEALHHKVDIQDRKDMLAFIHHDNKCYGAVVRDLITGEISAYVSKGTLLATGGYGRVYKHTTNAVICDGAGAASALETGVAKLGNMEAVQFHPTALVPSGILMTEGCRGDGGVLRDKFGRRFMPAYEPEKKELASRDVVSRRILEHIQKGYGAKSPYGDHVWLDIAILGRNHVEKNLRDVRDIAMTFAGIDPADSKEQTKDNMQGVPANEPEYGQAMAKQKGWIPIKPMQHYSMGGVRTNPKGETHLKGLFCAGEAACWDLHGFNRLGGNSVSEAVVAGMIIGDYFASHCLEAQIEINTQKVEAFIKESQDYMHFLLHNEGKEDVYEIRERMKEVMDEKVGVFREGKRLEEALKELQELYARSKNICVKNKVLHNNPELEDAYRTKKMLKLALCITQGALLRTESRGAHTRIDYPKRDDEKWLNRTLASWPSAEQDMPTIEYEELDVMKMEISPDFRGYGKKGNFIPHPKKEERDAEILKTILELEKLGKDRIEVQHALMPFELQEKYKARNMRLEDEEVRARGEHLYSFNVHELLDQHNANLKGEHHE
T1 sequence (O06914 1-245 partner): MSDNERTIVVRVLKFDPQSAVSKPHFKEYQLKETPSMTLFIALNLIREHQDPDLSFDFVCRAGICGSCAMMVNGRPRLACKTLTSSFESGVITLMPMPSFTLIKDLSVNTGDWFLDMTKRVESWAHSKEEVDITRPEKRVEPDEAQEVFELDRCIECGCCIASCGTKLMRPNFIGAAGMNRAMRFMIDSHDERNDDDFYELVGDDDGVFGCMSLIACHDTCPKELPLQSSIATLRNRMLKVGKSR
T1 sequence (O06912 1-255 partner): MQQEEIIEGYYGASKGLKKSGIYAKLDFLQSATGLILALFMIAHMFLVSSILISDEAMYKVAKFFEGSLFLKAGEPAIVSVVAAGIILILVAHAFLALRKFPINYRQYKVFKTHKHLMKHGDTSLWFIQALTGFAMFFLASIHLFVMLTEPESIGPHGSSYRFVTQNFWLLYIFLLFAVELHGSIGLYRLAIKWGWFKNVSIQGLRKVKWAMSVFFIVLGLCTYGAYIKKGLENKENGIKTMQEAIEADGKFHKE

[16] = target: T2, Helicobacter pylori fumarate reductase (Helicobacter pylori, UniProt O06913); assay type: biochemical
T2 construct: Membrane associated proteins were solubilized from the pellet in 150 mM KCl, pH 7.0; endogenous in cells; host or cells: Helicobacter pylori 007 strain; KCl-solubilised fraction (or sonicate supernatant)
T2 sequence (O06913 1-714): T1 sequence (O06913 1-714)
T2 sequence (O06914 1-245 partner): T1 sequence (O06914 1-245 partner)
T2 sequence (O06912 1-255 partner): T1 sequence (O06912 1-255 partner)
Procedure: 1) Extraction of soluble FRD: Bacteria were harvested by centrifugation at 18,000 g for 10 min at 4° C., and were washed 2 times in an isotonic phosphate saline buffer (50 mM sodium phosphate, pH 7.2, 90 mM NaCl, 5 mM Kcl). Bacteria were lysed in 5 mM Tris-HCl, pH 7.4, for 15 minutes, and centrifuged 18,000 g for 10 minutes. Membrane associated proteins were solubilized from the pellet in 150 mM KCl, pH 7.0, in ice bath for 60 min, and then the supernatant was collected after centrifugation (18,000 g for 10 minutes) for the measurement of FRD activity.
2) Extraction of FRD by sonication: Bacteria were harvested by centrifugation at 18,000 g for 10 min at 4° C., were sonicated, and then the supernatant was collected after centrifugation (18,000 g for 10 minutes) for the measurement of FRD activity.
NADH-FRD activity was determined as the rate of NADH-oxidation upon addition of 1 mM fumarate in the KCl-solubilized fraction or sonicated fraction. The reaction was monitored spectrophotometrically at 340 nm (∈=6.2 mM^−1 cm^−1) using 100 μM NADH and usually 3 mg protein in both reference and sample cuvettes. The measurement was carried out in a Shimadzu UV-190 double-beam spectrophotometer. Protein concentrations were determined using a Bio-Rad protein assay (Bio-Rad Laboratories, 200 Alfred Nobel Dr. Hercules, Calif. 94547, USA).
KCl solubilised fraction of bacteria was incubated with different concentrations of various oxygenated chalcones at 28° C. and the remaining FRD activity was measured. The IC50 values were determined as the concentration at which 50% of the activity was inhibited.

CCc1nc(N)nc(N)c1-c1ccc(Cl)cc1 [pyrimethamine]
mouse lymphoma tk assay, screening design [1]: negative

C[C@H]1[C@H](OC(=O)CCC(=O)O)O[C@@H]2O[C@@]3(C)CC[C@H]4[C@H](C)CC[C@@H]1[C@@]24OO3 [artesunate]
mouse lymphoma tk assay, screening design [1]: positive

C=CCOc1ccc(C(=O)/C=C/c2ccc(OC)c(OC)c2)cc1 [34m4′ac, 3,4-dimethoxy-4′-allyloxychalcone]
toxic effects [2]: No toxic effects
Minimum Cytotoxic Concentration [3]: <1/100
Minimum inhibitory concentration, Coxsackie virus B4 [4]: 1/60000
Minimum inhibitory concentration, Parainfluenza-3 Virus [5]: 1/6000
Minimum inhibitory concentration, Reovirus-1 [6]: <1/100
Minimum inhibitory concentration, Simliki forest virus [7]: 1/2000
Minimum inhibitory concentration, Sindbis virus [8]: 1/60000
Antiviral activity IC50, AD-169 strain, Assay 1 [9]: <1/30
Antiviral activity IC50, Davis strain, Assay 1 [10]: 1/100
Cytotoxicity CC50 [11]: <1/30
IC50 [12]: 60 ± 5 µM
IC50 [13]: 51 ± 6 µM
IC50 [14]: 32 µM

CCN(CC)CCCC(C)Nc1ccnc2cc(Cl)ccc12 (centres unmarked) [Chloroquine, chloroquine]
mouse lymphoma tk assay, screening design ([1]; with S9 mix): questionable negative

malonate
activity of succinate dehydrogenase [15]: concentration-dependent inhibitory effect

O=C(O)/C=C/C(=O)O [Fumarate]
activity of succinate dehydrogenase [15]: concentration-dependent inhibitory effect

antimycin [reference compound]
activity of NADH-fumarate reductase [16]: could not inhibit it
activity of succinate dehydrogenase [15]: could no inhibit it
